According to US9206183B2, “Substituted pyrazolo[1,5-a]pyridines as JAK inhibitors” (ALMIRALL, S.A., priority 2010, dated 2015):

Columns and labels:
Type in all cases: biochemical
human JAK2 (aa 826-1132) = target: T1, human JAK2 (aa 826-1132) (Homo sapiens, UniProt O60674); experiment: In vitro JAK kinase assay (TR-FRET), JAK2; settings: catalytic domain GST-fusion; ATP 0.2 μM; peptide 20 nM; 30 minutes at room temperature
T1 construct: JAK2 (aa 826-1132); GST (N); purchased Carna Biosciences; host or cells: baculovirus expression system
T1 sequence (O60674 826-1132): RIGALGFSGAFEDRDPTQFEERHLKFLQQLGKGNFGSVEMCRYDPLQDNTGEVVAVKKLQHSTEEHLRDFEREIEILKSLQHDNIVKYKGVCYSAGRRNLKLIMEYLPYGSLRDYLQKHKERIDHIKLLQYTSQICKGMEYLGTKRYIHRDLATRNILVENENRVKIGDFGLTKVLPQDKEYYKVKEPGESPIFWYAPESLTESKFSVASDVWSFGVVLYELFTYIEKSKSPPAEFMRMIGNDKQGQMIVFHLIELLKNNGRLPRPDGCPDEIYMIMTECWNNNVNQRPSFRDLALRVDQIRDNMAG
Method: (§1) Compounds were screened for their ability to inhibit JAK1, JAK2 and JAK3 using the assays as indicated below.
(§2) The catalytic domains of human JAK1 (aa 850-1154), JAK2 (aa 826-1132), JAK3 (aa 795-1124) and Tyk2 (aa 871-1187) were expressed as N-terminal GST-fusion proteins using a baculovirus expression system and were purchased from Carna Biosciences. The enzymatic activity was assayed using as substrate a biotinylated peptide, poly (GT)-Biotin (CisBio). The peptide concentration in the reactions was 60 nM for JAK1, 20 nM for JAK2, 140 nM for JAK3 and 50 nM for Tyk2. The degree of phosphorylation was detected by TR-FRET (time-resolved fluorescence energy transfer). IC50s of compounds were measured for each kinase in a reaction mixture containing the enzyme, ATP and the peptide in 8 mM MOPS (pH 7.0), 10 mM MgCl2, 0.05% β-mercaptoethanol, 0.45 mg/ml BSA. The ATP concentration in the reactions was 3 μM for JAK1, 0.2 μM for JAK2, 0.6 μM for JAK3 and 1.8 μM for Tyk2. The enzymatic reactions took place for 30 minutes at room temperature. Then, the reactions were stopped with 20 μL of quench detection buffer (50 mM HEPES, 0.5 M KF, EDTA 0.25 M, 0.1% (w/v) BSA, pH 7.5) containing 0.115 μg/mL of anti-phosphoTyr (PT66)-Cryptate (CisBio) and a variable concentration of SA-XL665 (CisBio) to keep the SA-B ratio constant. Incubate for 3 h and read on Victor 2V spectrofluorometer (PerkinElmer) set to read fluorescence resonance energy transfer.

human JAK1 (aa 850-1154) = target: T2, human JAK1 (aa 850-1154) (Homo sapiens, UniProt P23458); experiment: In vitro JAK kinase assay (TR-FRET), JAK1; settings: catalytic domain GST-fusion; ATP 3 μM; peptide 60 nM; 30 minutes at room temperature
T2 construct: human JAK1 (aa 850-1154); GST (N); purchased Carna Biosciences; host or cells: baculovirus expression system
T2 sequence (P23458 850-1154): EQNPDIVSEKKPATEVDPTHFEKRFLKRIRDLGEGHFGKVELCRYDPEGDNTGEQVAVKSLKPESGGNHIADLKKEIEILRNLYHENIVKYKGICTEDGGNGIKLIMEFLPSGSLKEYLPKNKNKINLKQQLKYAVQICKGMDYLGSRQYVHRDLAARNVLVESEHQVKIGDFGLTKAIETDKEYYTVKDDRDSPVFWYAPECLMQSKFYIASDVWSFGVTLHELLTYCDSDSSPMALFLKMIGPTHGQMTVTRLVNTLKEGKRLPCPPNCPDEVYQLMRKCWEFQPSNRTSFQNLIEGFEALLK
Method: as §1, §2

human JAK3 (aa 795-1124) = target: T3, human JAK3 (aa 795-1124) (Homo sapiens, UniProt P52333); experiment: In vitro JAK kinase assay (TR-FRET), JAK3; settings: catalytic domain GST-fusion; ATP 0.6 μM; peptide 140 nM; 30 minutes at room temperature
T3 construct: JAK3 (aa 795-1124); GST (N); purchased Carna Biosciences; host or cells: baculovirus expression system
T3 sequence (P52333 795-1124): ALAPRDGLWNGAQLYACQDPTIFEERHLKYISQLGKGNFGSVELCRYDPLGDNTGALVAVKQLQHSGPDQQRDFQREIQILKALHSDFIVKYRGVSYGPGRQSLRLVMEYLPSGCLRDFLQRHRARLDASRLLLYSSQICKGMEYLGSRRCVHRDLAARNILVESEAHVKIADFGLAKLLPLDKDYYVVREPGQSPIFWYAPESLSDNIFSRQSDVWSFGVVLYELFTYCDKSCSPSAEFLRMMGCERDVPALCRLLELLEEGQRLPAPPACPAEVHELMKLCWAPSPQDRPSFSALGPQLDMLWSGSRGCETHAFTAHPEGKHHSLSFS
Method: as §1, §2

| Structure (SMILES) | IC50 (human JAK2 (aa 826-1132)) | IC50 (human JAK1 (aa 850-1154)) | IC50 (human JAK3 (aa 795-1124)) |
| --- | --- | --- | --- |
| COC[C@H](C)Nc1ccnc(-c2cnn3ccc(C#N)cc23)n1 [Example 5, 3-(4-{[(1S)-2-Methoxy-1-methylethyl]amino}pyrimidin-2-yl)pyrazolo[1,5-a]pyridine-5-carbonitrile] | < 100 nM | 100 to 1000 nM | < 100 nM |
| N#Cc1ccn2ncc(-c3nccc(NCC(F)(F)F)n3)c2c1 [Example 7, 3-{4-[(2,2,2-Trifluoroethyl)amino]pyrimidin-2-yl}pyrazolo[1,5-a]pyridine-5-carbonitrile] | < 100 nM | > 1000 nM | 100 to 1000 nM |
| N#CCC(=O)N1CCC[C@@H](Nc2ccnc(-c3cnn4ccc(C#N)cc34)n2)C1 [Example 14, 3-(4-{[(3R)-1-(Cyanoacetyl)piperidin-3-yl]amino}pyrimidin-2-yl)pyrazolo[1,5-a]pyridine-5-carbonitrile] | < 100 nM | 100 to 1000 nM | < 100 nM |
| N#Cc1ccn2ncc(-c3nccc(N[C@H]4CC[C@H](O)CC4)n3)c2c1 [Example 19, 3-(4-((Trans)-4-Hydroxycyclohexylamino)pyrimidin-2-yl)pyrazolo[1,5-a]pyridine-5-carbonitrile] | < 100 nM | 100 to 1000 nM | < 100 nM |
| C[C@H](Nc1ccnc(-c2cnn3ccncc23)n1)c1ccccc1 [Example 21, (S)—N-(1-phenylethyl)-2-(pyrazolo[1,5-a]pyrazin-3-yl)pyrimidin-4-amine] | < 100 nM | < 100 nM | < 100 nM |
| N#Cc1ccc(N2CCC[C@@H](Nc3ccnc(-c4cnn5ccncc45)n3)C2)nc1 [Example 25, 6-{(3R)-3-[(2-Pyrazolo[1,5-a]pyrazin-3-ylpyrimidin-4-yl)amino]piperidin-1-yl}nicotinonitrile] | < 100 nM | 100 to 1000 nM | < 100 nM |
| CN(c1ccnc(-c2cnn3ccncc23)n1)[C@@H]1CCCN(C(=O)CC#N)C1 [Example 27, 3-{(3R)-3-[Methyl(2-pyrazolo[1,5-a]pyrazin-3-ylpyrimidin-4-yl)amino]piperidin-1-yl}-3-oxopropanenitrile] | < 100 nM | 100 to 1000 nM | < 100 nM |
| O=C(CC(F)(F)F)N1CCC[C@@H](Nc2nc(-c3cnn4ccncc34)ncc2F)C1 [Example 30, 5-Fluoro-2-pyrazolo[1,5-a]pyrazin-3-yl-N-[(3R)-1-(3,3,3-trifluoropropanoyl)piperidin-3-yl]pyrimidin-4-amine] | < 100 nM | 100 to 1000 nM | < 100 nM |
| Nc1cnc(-c2cnn3ccncc23)nc1NC1CCOCC1 [Example 35, 2-(Pyrazolo[1,5-a]pyrazin-3-yl)-N^4-(tetrahydro-2H-pyran-4-yl)pyrimidine-4,5-diamine] | < 100 nM | 100 to 1000 nM | 100 to 1000 nM |
| C[C@H](Nc1nc(-c2cnn3ccncc23)ncc1Cl)c1ccc(F)cn1 [Example 37, (S)-5-Chloro-N-(1-(5-fluoropyridin-2-yl)ethyl)-2-(pyrazolo[1,5-a]pyrazin-3-yl)pyrimidin-4-amine] | < 100 nM | < 100 nM | < 100 nM |
